Reference: patent publication US20170253607A1, “LONG-ACTING HIV PROTEASE INHIBITOR” (Shionogi & Co., Ltd., priority 2014, published 2017)

Target: HIV-1 PR (Human immunodeficiency virus type 1 group M subtype B, UniProt P04585)
Experiment: HIV-protease inhibitory activity assay (FRET peptide substrate)
Format: biochemical
Conditions: Test Example 1
Procedure, shortened: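 Inhibition of HIV-1 protease was measured as loss of fluorescence dequenching of a HiLyte Fluor 488/QXL 520 peptide at 2 μmol/L, pH 4.8, room temperature, 60 minute reaction. IC50 was derived by nonlinear four-parameter fitting.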

Structure (SMILES)	IC50 [nM]
COc1ccc(S(=O)(=O)N(CC(C)C)CC(O)C(Cc2ccc(N3CCC(c4sc5c(c4C(=O)O)CC(C)(C)CC5)CC3)cc2)NC(=O)OC2COC3(C)OCCC23)cc1 (stereo not drawn) [Compound I-227]	3.26
COc1ccc(S(=O)(=O)N(CC(C)C)CC(O)C(Cc2ccc(OCc3ccccc3NC(=O)Nc3sc4c(c3C(=O)O)CC(C)(C)CC4)cc2)NC(=O)OC2COC3(C)OCCC23)cc1 (stereo not drawn) [Compound I-229]	3.7
COc1ccc(S(=O)(=O)N(CC(C)C)CC(O)C(Cc2ccc(N3CCN(c4ccc(C#N)cc4-c4sc5c(c4C(=O)O)CC(C)(C)CC5)CC3)cc2)NC(=O)OC2COC3(C)OCCC23)cc1 (stereo not drawn) [Compound I-232]	4.1
COc1ccc(S(=O)(=O)N(CC(C)C)CC(O)C(Cc2ccc(N3CC4CN(c5ccc(C#N)cc5-c5sc6c(c5C(=O)O)CC(C)(C)CC6)CC4C3)cc2)NC(=O)OC2COC3(C)OCCC23)cc1 (stereo not drawn) [Compound I-233]	6.22
COc1ccc(S(=O)(=O)N(CC(C)C)CC(O)C(Cc2ccc(N(C)C3CCN(c4ccccc4-c4sc5c(c4C(=O)O)CC(C)(C)CC5)C3)cc2)NC(=O)OC2COC3(C)OCCC23)cc1 (stereo not drawn) [Compound I-239]	2.74
COc1ccc(S(=O)(=O)N(CC(C)C)CC(O)C(Cc2ccc(OC3CCN(C(=O)Nc4ccc(Cl)cc4-c4sc5c(c4C(=O)O)CC(C)(C)CC5)C3)cc2)NC(=O)OC2COC3(C)OCCC23)cc1 (stereo not drawn) [Compound I-244]	2.01
COc1ccc(S(=O)(=O)N(CC(C)C)CC(O)C(Cc2ccc(OC3CCN(C(=O)c4sc5c(c4C(=O)O)CC(C)(C)CC5)C3)cc2)NC(=O)OC2COC3(C)OCCC23)cc1 (stereo not drawn) [Compound I-245]	2.01
COc1ccc(S(=O)(=O)N(CC(C)C)C[C@@H](O)[C@H](Cc2ccc(NC[C@@H]3CCCC[C@@H]3c3sc4c(c3C(=O)O)CC(C)(C)CC4)cc2)NC(=O)O[C@H]2CO[C@@]3(C)OCC[C@@H]23)cc1 [Compound I-246]	2.07
COc1ccc(S(=O)(=O)N(CC(C)C)CC(O)C(Cc2ccc(CN(C)c3ccccc3-c3sc4c(c3C(=O)O)CC(C)(C)CC4)cc2)NC(=O)OC2COC3(C)OCCC23)cc1 (stereo not drawn) [Compound I-249]	2.26
COc1ccc(S(=O)(=O)N(CC(C)C)CC(O)C(Cc2ccc(CN(C)Cc3ccccc3-c3sc4c(c3C(=O)O)CC(C)(C)CC4)cc2)NC(=O)OC2COC3(C)OCCC23)cc1 (stereo not drawn) [Compound I-250]	2.2
COc1ccc(S(=O)(=O)N(CC(C)C)CC(O)C(Cc2ccc(OCc3ccccc3-c3ncc4c(c3C(=O)O)CC(C)(C)CC4)cc2)NC(=O)OC2COC3(C)OCCC23)cc1 (stereo not drawn) [Compound I-251]	2.3
COc1ccc(S(=O)(=O)N(CC(C)C)CC(O)C(Cc2ccc(NCc3cccc(-c4sc5c(c4C(=O)O)CC(C)(C)CC5)c3)cc2)NC(=O)OC2COC3(C)OCCC23)cc1 (stereo not drawn) [Compound I-254]	2.64
COc1ccc(S(=O)(=O)N(CC(C)C)CC(O)C(Cc2ccc(OCCN(C)c3ccc(C#N)cc3-c3sc4c(c3C(=O)O)CC(C)(C)CC4)cc2)NC(=O)OC2COC3(C)OCCC23)cc1 (stereo not drawn) [Compound I-257]	4.98
COc1ccc(S(=O)(=O)N(CC(C)C)CC(O)C(Cc2ccc(OCCNc3ccc(C#N)cc3-c3sc4c(c3C(=O)O)CC(C)(C)CC4)cc2)NC(=O)OC2COC3(C)OCCC23)cc1 (stereo not drawn) [Compound I-258]	5.23
COc1ccc(S(=O)(=O)N(CC(C)C)CC(O)C(Cc2ccc(OCC3CCCCC3Nc3ccc(C#N)cc3-c3sc4c(c3C(=O)O)CC(C)(C)CC4)cc2)NC(=O)OC2COC3(C)OCCC23)cc1 (stereo not drawn) [Compound I-259]	10.9
COc1ccc(S(=O)(=O)N(CC(C)C)CC(O)C(Cc2ccc(C(=O)NCc3ccccc3-c3sc4c(c3C(=O)O)CC(C)(C)CC4)cc2)NC(=O)OC2COC3(C)OCCC23)cc1 (stereo not drawn) [Compound I-263]	3.41
COc1ccc(S(=O)(=O)N(CC(C)C)CC(O)C(Cc2ccc(CN(C)c3cccc(-c4sc5c(c4C(=O)O)CC(C)(C)CC5)c3)cc2)NC(=O)OC2COC3(C)OCCC23)cc1 (stereo not drawn) [Compound I-264]	3.53

Structure (SMILES)	IC50 [nM]
COc1ccc(S(=O)(=O)N(CC(C)C)CC(O)C(Cc2ccc(CN(C)Cc3cccc(-c4sc5c(c4C(=O)O)CC(C)(C)CC5)c3)cc2)NC(=O)OC2COC3(C)OCCC23)cc1 (stereo not drawn) [Compound I-266]	2.61
COc1ccc(S(=O)(=O)N(CC(C)C)CC(O)C(Cc2ccc(N(C)C(=O)Nc3ccccc3-c3sc4c(c3C(=O)O)CC(C)(C)CC4)cc2)NC(=O)OC2COC3(C)OCCC23)cc1 (stereo not drawn) [Compound I-269]	3.41
COc1ccc(S(=O)(=O)N(CC(C)C)CC(O)C(Cc2ccc(NC(=O)Nc3ccccc3-c3sc4c(c3C(=O)O)CC(C)(C)CC4)cc2)NC(=O)OC2COC3(C)OCCC23)cc1 (stereo not drawn) [Compound I-270]	3.38
COc1ccc(S(=O)(=O)N(CC(C)C)CC(O)C(Cc2ccc(NCc3ccncc3-c3sc4c(c3C(=O)O)CC(C)(C)CC4)cc2)NC(=O)OC2COC3(C)OCCC23)cc1 (stereo not drawn) [Compound I-273]	2.25
COc1ccc(S(=O)(=O)N(CC(C)C)CC(O)C(Cc2ccc(NCc3occc3-c3sc4c(c3C(=O)O)CC(C)(C)CC4)cc2)NC(=O)OC2COC3(C)OCCC23)cc1 (stereo not drawn) [Compound I-276]	2.16
COc1ccc(S(=O)(=O)N(CC(C)C)CC(O)C(Cc2ccc(NCc3cnc(OC)cc3-c3sc4c(c3C(=O)O)CC(C)(C)CC4)cc2)NC(=O)OC2COC3(C)OCCC23)cc1 (stereo not drawn) [Compound I-278]	1.83
COc1ccc(S(=O)(=O)N(CC(C)C)CC(O)C(Cc2ccc(NCc3c(-c4sc5c(c4C(=O)O)CC(C)(C)CC5)ccc(F)c3F)cc2)NC(=O)OC2COC3(C)OCCC23)cc1 (stereo not drawn) [Compound I-279]	1.6
COc1ccc(S(=O)(=O)N(CC(C)C)CC(O)C(Cc2ccc(NCc3cc(-c4sc5c(c4C(=O)O)CC(C)(C)CC5)ccc3F)cc2)NC(=O)OC2COC3(C)OCCC23)cc1 (stereo not drawn) [Compound I-280]	3.24
COc1ccc(S(=O)(=O)N(CC(C)C)CC(O)C(Cc2ccc(NCc3cc(-c4sc5c(c4C(=O)O)CC(C)(C)CC5)ccc3OC)cc2)NC(=O)OC2COC3(C)OCCC23)cc1 (stereo not drawn) [Compound I-281]	2.95
COc1ccc(S(=O)(=O)N(CC(C)C)CC(O)C(Cc2ccc(NCc3ccc(-c4sc5c(c4C(=O)O)CC(C)(C)CC5)cc3F)cc2)NC(=O)OC2COC3(C)OCCC23)cc1 (stereo not drawn) [Compound I-282]	4.04
COc1ccc(S(=O)(=O)N(CC(C)C)CC(O)C(Cc2ccc(NCc3cccc(-c4sc5c(c4C(=O)O)CC(C)(C)CC5)n3)cc2)NC(=O)OC2COC3(C)OCCC23)cc1 (stereo not drawn) [Compound I-283]	2.28
COc1ccc(S(=O)(=O)N(CC(C)C)CC(O)C(Cc2ccc(NCc3cc(-c4sc5c(c4C(=O)O)CC(C)(C)CC5)co3)cc2)NC(=O)OC2COC3(C)OCCC23)cc1 (stereo not drawn) [Compound I-284]	2.98
COc1ccc(S(=O)(=O)N(CC(C)C)CC(O)C(Cc2ccc(NCc3ccc(-c4ccc(-c5sc6c(c5C(=O)O)CC(C)(C)CC6)cc4)cc3)cc2)NC(=O)OC2COC3(C)OCCC23)cc1 (stereo not drawn) [Compound I-285]	7.76
COc1ccc(S(=O)(=O)N(CC(C)C)CC(O)C(Cc2ccc(NCc3cnc4ccc(-c5sc6c(c5C(=O)O)CC(C)(C)CC6)cn34)cc2)NC(=O)OC2COC3(C)OCCC23)cc1 (stereo not drawn) [Compound I-286]	2.06
COc1ccc(S(=O)(=O)N(CC(C)C)CC(O)C(Cc2ccc(NCc3ccc(-c4sc5c(c4C(=O)O)CC(C)(C)CC5)o3)cc2)NC(=O)OC2COC3(C)OCCC23)cc1 (stereo not drawn) [Compound I-288]	2.19
COc1ccc(S(=O)(=O)N(CC(C)C)CC(O)C(Cc2ccc(NCc3nc(-c4sc5c(c4C(=O)O)CC(C)(C)CC5)cs3)cc2)NC(=O)OC2COC3(C)OCCC23)cc1 (stereo not drawn) [Compound I-289]	2.4
